# Results: ChEMBL document CHEMBL5625202, “Synthesis, characterization and anti-breast cancer activities of stachydrine derivatives” (Eur J Med Chem, 2023)
# Active and inactive are the calls of the source. The calls are words filed in the database; no cut-off is given here.
# Experiments:
# 4T1 [1] = assay: Induction of apoptosis in mouse 4T1 cells assessed as decrease in Bcl2 expression at 10 uM incubated for 24 hrs by Western blot analysis; type: functional, cell-based
# [2] = Toxicity against BALB/c mouse implanted with mouse 4T1 cells assessed as animal death at 0.2 mmol/Kg, po administered once every day for 14 days; type: organism-based; settings: in vivo, 336 h, time 14 day
# 4T1 [3] = assay: Induction of apoptosis in mouse 4T1 cells assessed as increase in cleaved caspase-3 expression at 10 uM incubated for 24 hrs by Western blot analysis; type: functional, cell-based
# [4] = Toxicity in BALB/c mouse implanted with mouse 4T1 cells assessed as splenic edema at 0.2 mmol/Kg, po administered once every day for 14 days; type: organism-based; settings: in vivo, 336 h, time 14 day
# [5] = Prodrug conversion in cell culture medium containing 10% FBS assessed as drug hydrolysis by measuring stachydrine release at 3 to 20 hrs; type: ADME; settings: cattle; time 3-20 hrs
# [6] = Prodrug conversion in serum (unknown origin) assessed as drug hydrolysis by measuring stachydrine release at 3 to 20 hrs; type: ADME, cell-free; settings: time 3-20 hrs
# 4T1 [7] = assay: Inhibition of cell migration in mouse 4T1 cells assessed as expansion of wound area at 30 micromol/mL incubated for 24 hrs by microscopic analysis; type: functional, cell-based; settings: dose 30.0 µmol/ml
# 4T1 [8] = assay: Induction of apoptosis in mouse 4T1 cells assessed as apoptotic rate at 40 micromol/L incubated for 24 hrs by Annexin-V/PI staining based flow cytometry relative to control; type: functional; settings: dose 40 µmol/L, at 40 µM
# 4T1 [9] = assay: Induction of G0/G1 phase cell cycle arrest in mouse 4T1 cells assessed as decrease in G2/M phase cells at 1.25 to 40 uM incubated for 24 hrs by flow cytometry; type: functional, cell-based; settings: dose 1.25-40 µM
# [10] = Toxicity in BALB/c mouse implanted with mouse 4T1 cells assessed as effect on BUN level at 0.2 mmol/Kg, po administered once every day for 14 days by routine blood analysis; type: organism-based; settings: in vivo, 336 h, time 14 day
# [11] = Prodrug conversion in Sprague-Dawley rat plasma assessed as Stachydrine release at 10 mg/kg, iv measured after 24 hrs by LC-MS/MS analysis; type: ADME, organism-based; settings: in vivo
# 4T1 [12] = assay: Antitumor activity against mouse 4T1 cells implanted in BALB/c mouse assessed as tumor growth inhibition at 0.2 mmol/Kg, po administered once every day for 14 days relative to control; type: functional; settings: 4T1, 336 h, time 14 day, read-out: TGI
# [13] = Toxicity in BALB/c mouse implanted with mouse 4T1 cells assessed as increase in white blood cells at 0.2 mmol/Kg, po administered once every day for 14 days by routine blood analysis; type: organism-based; settings: in vivo, 336 h, time 14 day
# [14] = Toxicity in BALB/c mouse implanted with mouse 4T1 cells assessed as change in lung histopathology at 0.2 mmol/Kg, po administered once every day for 14 days; type: organism-based; settings: in vivo, 336 h, time 14 day
# [15] = Toxicity in BALB/c mouse implanted with mouse 4T1 cells assessed as body weight loss at 0.2 mmol/Kg, po administered once daily for 14 days; type: organism-based; settings: in vivo, 336 h, time 14 day
smiles,measurement,setting,value
CCCCCCCCCCCCOC(=O)C1CCC[N+]1(C)C.[Cl-] (stereo not given),Activity,4T1 [1],Active
same,Activity,[2],Non-Toxic
same,Activity,4T1 [3],Active
same,Activity,[4],Toxic
same,Drug metabolism,[5],Metabolite_Detected
same,Drug metabolism,[6],Metabolite_Detected
same,inhibition,4T1 [7],Active
same,Activity,4T1 [8],71.3%
same,Activity,4T1 [9],Active
same,Activity,[10],Non-Toxic
same,Drug metabolism,[11],Metabolite_Detected
same,inhibition in vivo at 200 µmol/kg,4T1 [12],56.3%
same,Activity,[13],Non-Toxic
same,Activity,[14],Non-Toxic
same,Activity,[15],Toxic
